From PMC5909127, “Optimization of a “bump-and-hole” approach to allele-selective BET bromodomain inhibition” (Chemical Science, 2018)

Columns and labels:
BRD4 BD2 L/V = BRD4 BD2 L/V (Homo sapiens, UniProt O60885, L387V); assay: competitive AlphaLISA; format: binding
[1] = target: WT BET bromodomains (BD1 and BD2 of BRD2, BRD3 and BRD4); assay: competitive AlphaLISA (Bio-JQ1 displacement); format: binding, human; details: mean and SD of all somatic bromodomains; active enantiomer concentration
BRD3 BD1 L/V = BRD3 BD1 L/V (Homo sapiens, UniProt Q15059, L70V); assay: competitive AlphaLISA; format: binding
[2] = target: WT somatic BET bromodomains; assay: ITC; details: mean and SD of all somatic bromodomains
BRD4 BD2 WT = BRD4 BD2 WT (Homo sapiens, UniProt O60885); assay: competitive AlphaLISA; format: binding
in vitro = details: PAMPA, pH 7.4
BRD2 BD2 L/V = BRD2 BD2 L/V (Homo sapiens, UniProt P25440, L383V); assay: competitive AlphaLISA; format: binding
BRD2 BD1 WT = BRD2 BD1 WT (Homo sapiens, UniProt P25440); assay: competitive AlphaLISA; format: binding
BRD3 BD2 L/V = BRD3 BD2 L/V (Homo sapiens, UniProt Q15059, L345V); assay: competitive AlphaLISA; format: binding
Plasma Half-life = details: BALB/c, mouse, pH 7.4
A2A (h) = A2A (h) (Homo sapiens, UniProt P29274); assay: CEREP ExpresSProfile; details: read-out: Mean % of control specific binding (±SD)
5-HT5a (h) = 5-HT5a (h) (Homo sapiens, UniProt P47898); assay: CEREP ExpresSProfile; details: read-out: Mean % of control specific binding (±SD)
beta 2 (h) = beta 2 (h) (Homo sapiens, UniProt P07550); assay: CEREP ExpresSProfile; details: read-out: Mean % of control specific binding (±SD)
VPAC1 (VIP1) (h) = VPAC1 (VIP1) (h) (Homo sapiens, UniProt P32241); assay: CEREP ExpresSProfile; details: read-out: Mean % of control specific binding (±SD)
Source text: (§5) Receptor Reference Compound Mean % of control specific
Receptor & Ion-Channel Screening
CEREP ExpresSProfile panel

NTS1 (NT1) (h) = NTS1 (NT1) (h) (Homo sapiens, UniProt P30989); assay: CEREP ExpresSProfile; details: read-out: Mean % of control specific binding (±SD)
dopamine transporter (h) = dopamine transporter (h) (Homo sapiens, UniProt Q01959); assay: CEREP ExpresSProfile; details: read-out: Mean % of control specific binding (±SD)
Source text: as §5
Receptor & Ion-Channel Screening
CEREP ExpresSProfile panel

M2 (h) = M2 (h) (Homo sapiens, UniProt P08172); assay: CEREP ExpresSProfile; details: read-out: Mean % of control specific binding (±SD)
D2S (h) = D2S (h) (Homo sapiens, UniProt P14416); assay: CEREP ExpresSProfile; details: read-out: Mean % of control specific binding (±SD)
[3] = target: GFP-labelled WT BRD4 in U2OS cells (Homo sapiens, UniProt O60885); assay: FRAP; details: 200 nM, 2 μM SAHA
A3 (h) = A3 (h) (Homo sapiens, UniProt P0DMS8); assay: CEREP ExpresSProfile; details: read-out: Mean % of control specific binding (±SD)
Source text: as §5
Receptor & Ion-Channel Screening
CEREP ExpresSProfile panel

[4] = WT Cell Cytotoxicity (CellTiter-Glo); details: human, HL-60 cells (BET-dependent AML cell line)
NK3 (h) = NK3 (h) (Homo sapiens, UniProt P29371); assay: CEREP ExpresSProfile; details: read-out: Mean % of control specific binding (±SD)
Source text: as §5
Receptor & Ion-Channel Screening
CEREP ExpresSProfile panel

IGF-1R = IGF-1R (Homo sapiens, UniProt P08069); assay: kinase Express Screen; format: biochemical
Procedure: (§1) Kinase Remaining activity
(§2) Table S9. 9-ME-1 Kinase Screen
(§3) Activity of panel of human kinases following treatment with 1 µM (2R, 3S)-7. Dundee MRC-PPU Express Screen
(§4) (http://www.kinase-screen.mrc.ac.uk/services/express-screen)

SRPK1 = SRPK1 (Homo sapiens, UniProt Q96SB4); assay: kinase Express Screen; format: biochemical
Procedure: as §1, §2, §3, §4

CHK2 = CHK2 (Homo sapiens, UniProt O96017); assay: kinase Express Screen; format: biochemical
Procedure: as §1, §2, §3, §4

IRAK4 = IRAK4 (Homo sapiens, UniProt Q9NWZ3); assay: kinase Express Screen; format: biochemical
Procedure: as §1, §2, §3, §4

PDK1 = PDK1 (Homo sapiens, UniProt O15530); assay: kinase Express Screen; format: biochemical
Procedure: as §1, §2, §3, §4

Src = Src (Homo sapiens, UniProt P12931); assay: kinase Express Screen; format: biochemical
Procedure: as §1, §2, §3, §4

AMPK (hum) = AMPK (hum) (Homo sapiens, UniProt Q13131); assay: kinase Express Screen; format: biochemical
Procedure: as §1, §2, §3, §4

PKD1 = PKD1 (Homo sapiens, UniProt Q15139); assay: kinase Express Screen; format: biochemical
Procedure: as §1, §2, §3, §4

S6K1 = S6K1 (Homo sapiens, UniProt P23443); assay: kinase Express Screen; format: biochemical
Procedure: as §1, §2, §3, §4

Aurora B = Aurora B (Homo sapiens, UniProt Q96GD4); assay: kinase Express Screen; format: biochemical
Procedure: as §1, §2, §3, §4

TTK = TTK (Homo sapiens, UniProt P33981); assay: kinase Express Screen; format: biochemical
Procedure: as §1, §2, §3, §4

MST2 = MST2 (Homo sapiens, UniProt Q13188); assay: kinase Express Screen; format: biochemical
Procedure: as §1, §2, §3, §4

MSK1 = MSK1 (Homo sapiens, UniProt O75582); assay: kinase Express Screen; format: biochemical
Procedure: as §1, §2, §3, §4

MARK3 = MARK3 (Homo sapiens, UniProt P27448); assay: kinase Express Screen; format: biochemical
Procedure: as §1, §2, §3, §4

TAK1 = TAK1 (Homo sapiens, UniProt O43318); assay: kinase Express Screen; format: biochemical
Procedure: as §1, §2, §3, §4

EPH-A2 = EPH-A2 (Homo sapiens, UniProt P29317); assay: kinase Express Screen; format: biochemical
Procedure: as §1, §2, §3, §4

TrkA = TrkA (Homo sapiens, UniProt P04629); assay: kinase Express Screen; format: biochemical
Procedure: as §1, §2, §3, §4

PKBa = PKBa (Homo sapiens, UniProt P31749); assay: kinase Express Screen; format: biochemical
Procedure: as §1, §2, §3, §4

CAMKKb = CAMKKb (Homo sapiens, UniProt Q96RR4); assay: kinase Express Screen; format: biochemical
Procedure: as §1, §2, §3, §4

beta 1 (h) = beta 1 (h) (Homo sapiens, UniProt P08588); assay: CEREP ExpresSProfile; details: read-out: Mean % of control specific binding (±SD)

Sequence of PDK1 (O15530 whole entry): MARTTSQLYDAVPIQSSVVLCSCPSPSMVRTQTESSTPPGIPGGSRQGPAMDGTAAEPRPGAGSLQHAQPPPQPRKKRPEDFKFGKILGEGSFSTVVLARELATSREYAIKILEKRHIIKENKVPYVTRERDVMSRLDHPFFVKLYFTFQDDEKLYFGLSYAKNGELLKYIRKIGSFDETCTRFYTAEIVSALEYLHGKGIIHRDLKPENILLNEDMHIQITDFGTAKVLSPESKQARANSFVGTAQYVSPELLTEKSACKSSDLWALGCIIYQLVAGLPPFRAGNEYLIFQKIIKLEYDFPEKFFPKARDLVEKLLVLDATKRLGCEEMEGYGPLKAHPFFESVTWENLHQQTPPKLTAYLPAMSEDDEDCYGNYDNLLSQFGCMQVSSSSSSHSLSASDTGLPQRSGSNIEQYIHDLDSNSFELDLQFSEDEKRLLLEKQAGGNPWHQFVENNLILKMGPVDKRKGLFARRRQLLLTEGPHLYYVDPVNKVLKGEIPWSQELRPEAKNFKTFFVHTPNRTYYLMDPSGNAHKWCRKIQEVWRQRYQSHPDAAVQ
Sequence of EPH-A2 (P29317 24-976): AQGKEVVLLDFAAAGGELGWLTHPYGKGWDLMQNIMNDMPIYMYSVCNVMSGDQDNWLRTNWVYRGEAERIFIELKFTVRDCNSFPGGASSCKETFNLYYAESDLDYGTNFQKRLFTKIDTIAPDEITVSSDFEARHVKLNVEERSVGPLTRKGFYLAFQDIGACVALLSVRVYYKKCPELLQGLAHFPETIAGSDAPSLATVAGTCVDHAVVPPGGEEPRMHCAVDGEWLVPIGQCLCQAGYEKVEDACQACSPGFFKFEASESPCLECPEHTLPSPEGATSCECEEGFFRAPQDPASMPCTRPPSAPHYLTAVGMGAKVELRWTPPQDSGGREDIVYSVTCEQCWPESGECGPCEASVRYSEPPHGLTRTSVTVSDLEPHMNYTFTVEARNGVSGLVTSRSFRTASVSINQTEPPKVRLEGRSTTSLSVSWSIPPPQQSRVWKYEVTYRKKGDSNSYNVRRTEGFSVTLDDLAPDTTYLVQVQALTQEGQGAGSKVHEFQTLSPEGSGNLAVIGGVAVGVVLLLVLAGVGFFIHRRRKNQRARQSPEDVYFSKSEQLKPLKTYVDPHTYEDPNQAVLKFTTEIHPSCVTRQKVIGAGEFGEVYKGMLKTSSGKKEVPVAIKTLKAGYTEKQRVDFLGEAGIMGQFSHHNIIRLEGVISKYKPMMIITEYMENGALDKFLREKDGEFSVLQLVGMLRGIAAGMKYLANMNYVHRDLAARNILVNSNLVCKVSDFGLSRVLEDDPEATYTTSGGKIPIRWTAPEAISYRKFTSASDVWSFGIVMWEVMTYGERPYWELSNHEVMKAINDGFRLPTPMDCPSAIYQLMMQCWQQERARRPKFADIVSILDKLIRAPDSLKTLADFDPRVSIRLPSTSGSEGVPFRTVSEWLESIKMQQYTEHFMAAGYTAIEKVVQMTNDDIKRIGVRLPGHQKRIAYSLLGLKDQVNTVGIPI
Sequence of VPAC1 (VIP1) (h) (P32241 31-457): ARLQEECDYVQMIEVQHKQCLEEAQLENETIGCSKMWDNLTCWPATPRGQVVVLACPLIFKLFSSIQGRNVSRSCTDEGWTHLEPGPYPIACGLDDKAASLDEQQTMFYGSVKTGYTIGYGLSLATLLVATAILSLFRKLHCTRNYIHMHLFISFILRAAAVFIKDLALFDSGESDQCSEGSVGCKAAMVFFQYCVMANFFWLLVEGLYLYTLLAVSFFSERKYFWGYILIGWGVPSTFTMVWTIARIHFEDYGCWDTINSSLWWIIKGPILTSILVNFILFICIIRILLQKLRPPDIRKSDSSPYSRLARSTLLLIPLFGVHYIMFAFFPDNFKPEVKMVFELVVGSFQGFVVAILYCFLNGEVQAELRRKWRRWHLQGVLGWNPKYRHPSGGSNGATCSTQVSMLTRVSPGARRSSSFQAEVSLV
Sequence of beta 2 (h) (P07550 whole entry): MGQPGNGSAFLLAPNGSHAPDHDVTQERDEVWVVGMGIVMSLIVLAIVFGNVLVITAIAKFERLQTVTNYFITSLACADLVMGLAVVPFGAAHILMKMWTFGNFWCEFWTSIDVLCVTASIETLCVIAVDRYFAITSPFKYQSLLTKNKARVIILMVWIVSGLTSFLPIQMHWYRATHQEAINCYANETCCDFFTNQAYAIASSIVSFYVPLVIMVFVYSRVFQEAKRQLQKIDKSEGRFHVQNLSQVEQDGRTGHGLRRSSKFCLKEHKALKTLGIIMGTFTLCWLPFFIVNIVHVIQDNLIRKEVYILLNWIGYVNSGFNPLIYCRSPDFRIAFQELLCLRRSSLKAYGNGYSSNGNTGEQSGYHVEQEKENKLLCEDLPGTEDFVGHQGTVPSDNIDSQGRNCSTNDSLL
Sequence of D2S (h) (P14416 1-414 isoform P14416-2): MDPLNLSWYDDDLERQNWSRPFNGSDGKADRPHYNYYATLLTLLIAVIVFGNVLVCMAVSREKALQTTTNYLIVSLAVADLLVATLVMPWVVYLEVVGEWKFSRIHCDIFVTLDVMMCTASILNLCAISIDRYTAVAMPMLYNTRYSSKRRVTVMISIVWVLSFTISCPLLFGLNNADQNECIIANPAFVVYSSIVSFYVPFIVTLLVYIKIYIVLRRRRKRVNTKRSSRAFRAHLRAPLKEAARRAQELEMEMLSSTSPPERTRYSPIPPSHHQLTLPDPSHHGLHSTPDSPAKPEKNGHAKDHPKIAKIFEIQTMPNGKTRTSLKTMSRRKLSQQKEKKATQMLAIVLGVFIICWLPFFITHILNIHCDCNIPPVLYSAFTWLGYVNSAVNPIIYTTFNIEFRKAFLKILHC
Sequence of TTK (P33981 whole entry): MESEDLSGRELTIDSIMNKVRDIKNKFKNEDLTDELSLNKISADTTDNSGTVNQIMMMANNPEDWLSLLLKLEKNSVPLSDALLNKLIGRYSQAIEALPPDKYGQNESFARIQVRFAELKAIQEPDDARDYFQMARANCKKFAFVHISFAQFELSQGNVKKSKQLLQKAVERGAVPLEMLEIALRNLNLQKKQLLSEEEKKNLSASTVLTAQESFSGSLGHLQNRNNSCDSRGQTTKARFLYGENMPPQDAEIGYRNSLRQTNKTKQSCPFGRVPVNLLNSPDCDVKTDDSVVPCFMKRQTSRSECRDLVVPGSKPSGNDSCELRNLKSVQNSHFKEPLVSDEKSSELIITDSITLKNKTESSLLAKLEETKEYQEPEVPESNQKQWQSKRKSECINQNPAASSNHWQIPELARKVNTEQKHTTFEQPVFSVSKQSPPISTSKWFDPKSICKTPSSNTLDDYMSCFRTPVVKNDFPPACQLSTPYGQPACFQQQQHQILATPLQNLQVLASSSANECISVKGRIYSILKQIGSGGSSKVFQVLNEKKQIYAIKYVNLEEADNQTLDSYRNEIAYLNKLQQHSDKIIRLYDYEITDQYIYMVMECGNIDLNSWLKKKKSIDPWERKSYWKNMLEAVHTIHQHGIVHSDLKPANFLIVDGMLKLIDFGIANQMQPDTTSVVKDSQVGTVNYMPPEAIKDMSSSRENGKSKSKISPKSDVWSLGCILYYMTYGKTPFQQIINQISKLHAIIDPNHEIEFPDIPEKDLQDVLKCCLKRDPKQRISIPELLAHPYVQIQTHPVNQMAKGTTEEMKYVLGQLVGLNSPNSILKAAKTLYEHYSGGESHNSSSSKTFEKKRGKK
Sequence of IGF-1R (P08069 31-1367): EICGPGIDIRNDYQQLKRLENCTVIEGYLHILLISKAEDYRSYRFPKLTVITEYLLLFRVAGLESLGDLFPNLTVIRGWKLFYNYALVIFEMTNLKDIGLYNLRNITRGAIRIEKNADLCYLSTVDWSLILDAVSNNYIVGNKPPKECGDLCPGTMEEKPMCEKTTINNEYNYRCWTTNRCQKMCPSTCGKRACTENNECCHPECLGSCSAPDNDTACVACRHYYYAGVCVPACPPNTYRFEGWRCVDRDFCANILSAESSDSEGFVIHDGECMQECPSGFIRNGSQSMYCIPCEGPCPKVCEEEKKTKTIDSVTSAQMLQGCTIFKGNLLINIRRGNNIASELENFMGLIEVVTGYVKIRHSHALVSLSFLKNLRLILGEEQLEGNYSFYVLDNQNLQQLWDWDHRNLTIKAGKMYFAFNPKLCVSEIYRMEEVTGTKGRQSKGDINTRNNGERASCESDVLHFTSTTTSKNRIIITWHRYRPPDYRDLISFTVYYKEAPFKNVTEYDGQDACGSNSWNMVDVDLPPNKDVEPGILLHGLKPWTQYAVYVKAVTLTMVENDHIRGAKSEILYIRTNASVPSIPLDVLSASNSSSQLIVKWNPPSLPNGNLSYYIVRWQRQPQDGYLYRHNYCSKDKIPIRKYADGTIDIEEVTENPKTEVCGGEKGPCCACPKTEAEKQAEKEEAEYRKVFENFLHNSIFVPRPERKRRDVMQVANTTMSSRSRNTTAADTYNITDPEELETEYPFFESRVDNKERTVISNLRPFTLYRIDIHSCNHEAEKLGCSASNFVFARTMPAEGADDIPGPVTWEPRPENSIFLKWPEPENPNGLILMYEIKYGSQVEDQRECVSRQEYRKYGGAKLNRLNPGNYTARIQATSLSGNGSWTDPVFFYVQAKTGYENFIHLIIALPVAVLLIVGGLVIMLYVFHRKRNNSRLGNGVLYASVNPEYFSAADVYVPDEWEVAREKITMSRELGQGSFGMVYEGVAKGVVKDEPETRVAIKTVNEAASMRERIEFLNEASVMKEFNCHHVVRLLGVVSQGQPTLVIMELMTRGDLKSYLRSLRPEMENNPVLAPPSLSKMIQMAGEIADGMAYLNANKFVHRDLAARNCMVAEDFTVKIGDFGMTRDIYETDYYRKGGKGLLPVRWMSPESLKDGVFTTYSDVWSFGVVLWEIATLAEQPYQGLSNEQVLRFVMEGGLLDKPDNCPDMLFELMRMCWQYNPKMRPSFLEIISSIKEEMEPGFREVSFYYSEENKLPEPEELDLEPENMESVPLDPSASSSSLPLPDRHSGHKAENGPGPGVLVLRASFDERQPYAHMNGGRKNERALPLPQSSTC

CC[C@@H](C(=O)OC)[C@@H]1N=C(c2ccc(Cl)cc2)c2ccc(OC)cc2-n2c(C)nnc21 (racemic) [Compound 8]
IC50 (BRD4 BD2 L/V): 200 nM | AlphaLISA pIC50 ± SD WT [1]: 5.5 ± 0.2 | IC50 (BRD3 BD1 L/V): 126 nM | ITC pKd ± SD WT [2]: <4.2 | IC50 (BRD4 BD2 WT): 3.16 µM | Papp (in vitro): 15.5 ×10⁻⁶ cm/s | IC50 (BRD2 BD2 L/V): 200 nM | IC50 (BRD2 BD1 WT): 10 µM | IC50 (BRD3 BD2 L/V): 79.4 nM | half-life at 50 µM (Plasma Half-life): > 180 min

COC(=O)[C@H](C)[C@@H]1N=C(c2ccc(Cl)cc2)c2ccc(OC)cc2-n2c(C)nnc21 [(2R,3S)-7]
remaining activity at 1 µM (A2A (h)): 99% | remaining activity at 1 µM (5-HT5a (h)): 109% | remaining activity at 1 µM (beta 2 (h)): 105% | remaining activity at 1 µM (VPAC1 (VIP1) (h)): 98% | remaining activity at 1 µM (NTS1 (NT1) (h)): 106% | remaining activity at 1 µM (dopamine transporter (h)): 84% | remaining activity at 1 µM (M2 (h)): 105% | remaining activity at 1 µM (D2S (h)): 95% | blockade of WT BRD4 (FRAP) [3]: no statistically significant blockade | remaining activity at 1 µM (A3 (h)): 91% | CC50 at 48 h [4]: > 5.01 µM | remaining activity at 1 µM (NK3 (h)): 99% | remaining activity at 1 µM (IGF-1R): 93% | remaining activity at 1 µM (SRPK1): 79% | remaining activity at 1 µM (CHK2): 107% | remaining activity at 1 µM (IRAK4): 114% | remaining activity at 1 µM (PDK1): 97% | remaining activity at 1 µM (Src): 82% | remaining activity at 1 µM (AMPK (hum)): 104% | remaining activity at 1 µM (PKD1): 78% | remaining activity at 1 µM (S6K1): 93% | remaining activity at 1 µM (Aurora B): 94% | remaining activity at 1 µM (TTK): 102% | remaining activity at 1 µM (MST2): 118% | remaining activity at 1 µM (MSK1): 94% | remaining activity at 1 µM (MARK3): 94% | remaining activity at 1 µM (TAK1): 108% | remaining activity at 1 µM (EPH-A2): 86% | remaining activity at 1 µM (TrkA): 98% | remaining activity at 1 µM (PKBa): 95% | remaining activity at 1 µM (CAMKKb): 101% | remaining activity at 1 µM (beta 1 (h)): 95%
